Measurements as given in US12139492B2 (Endotarget Inc., priority 2021, dated 2024).
Like-named read-outs stand apart in the source and are kept apart here.

Columns and labels:
Mino cells = experiment: Antiproliferative effect, MTS cell viability assay, Mino cells; type: cell-based; settings: Mino mantle cell lymphoma cells, read-out: IC50 (anti-proliferation) Mino cells
Method: (§1) Antiproliferative effect of the exemplary compounds was assessed in B-cell malignancy models.
(§2) To assess the effect of the exemplary compounds on cell viability in B-cell malignancy models by degradation of BTK protein, Mino and JeKo-1 cells were treated with varying concentrations of Ibrutinib (0, 0.001, 0.01, 0.1, 1, 10 μM). Under these conditions, cell viability was determined by an MTS assay. Cytotoxicity was assayed by the determination of reduced tetrazolium (formazan) created by metabolically active cells as detected at 490 nm absorbance using a microplate reader (BMG Labtech, Cary, NC, USA).
(§3) The exemplary compounds attenuated the viability of Mino and JeKo-1 cells in a concentration-dependent manner at 72 h post treatment. Results are shown in Table 1 for each exemplary compound.

JeKo-1 cells = experiment: Antiproliferative effect, MTS cell viability assay, JeKo-1 cells; type: cell-based; settings: JeKo-1 mantle cell lymphoma cells, read-out: IC50 (anti-proliferation) JeKO-1 cells
Method: as §1, §2, §3

BTK = BTK (Homo sapiens, UniProt Q06187); experiment: Degradation of BTK protein in Namalwa cells (Western blot; DC50, Dmax)
[1] = read-out: DC50 (BTK degradation), concentration giving 50% reduction of BTK expression level, cell line not given
[2] = read-out: Dmax (BTK degradation)
[3] = BTK degradation, cell line not given

BTK, sequence (Q06187 whole entry): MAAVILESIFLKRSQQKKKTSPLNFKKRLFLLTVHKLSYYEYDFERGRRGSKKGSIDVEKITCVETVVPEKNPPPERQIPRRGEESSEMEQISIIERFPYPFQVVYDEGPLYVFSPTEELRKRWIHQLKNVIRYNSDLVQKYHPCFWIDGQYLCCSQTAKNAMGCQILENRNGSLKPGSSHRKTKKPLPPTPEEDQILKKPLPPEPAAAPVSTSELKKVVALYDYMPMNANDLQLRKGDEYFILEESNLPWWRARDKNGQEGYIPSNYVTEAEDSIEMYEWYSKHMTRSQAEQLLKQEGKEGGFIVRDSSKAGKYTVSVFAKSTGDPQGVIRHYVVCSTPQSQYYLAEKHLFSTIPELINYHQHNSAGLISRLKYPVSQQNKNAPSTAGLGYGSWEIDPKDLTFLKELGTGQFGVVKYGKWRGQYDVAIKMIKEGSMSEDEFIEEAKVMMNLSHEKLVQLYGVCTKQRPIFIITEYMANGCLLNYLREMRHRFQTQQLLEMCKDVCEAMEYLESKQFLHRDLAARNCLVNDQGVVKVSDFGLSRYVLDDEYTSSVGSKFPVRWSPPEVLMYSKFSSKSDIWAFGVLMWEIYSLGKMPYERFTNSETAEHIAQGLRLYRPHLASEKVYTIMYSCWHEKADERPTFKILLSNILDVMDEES

| DC50 (BTK; [1]) | Dmax (BTK; [2]) | Dmax (BTK) | DC50 (BTK; [3]) | Dmax (BTK degradation) (BTK; cell line not given) | Compound | IC50 (Mino cells; Homo sapiens) | IC50 (JeKo-1 cells; Homo sapiens) | IC50 (Mino cells; Homo sapiens, MINO) | degradation of BTK protein (BTK; Namalwa B lymphocyte cells, various concentrations, 24 hours, Western blot) | IC50 (Mino cells) | IC50 (JeKo-1 cells) |
| --- | --- | --- | --- | --- | --- | --- | --- | --- | --- | --- | --- |
| < 10 nM | > 90% |  |  |  | Nc1ncnc2c1c(-c1ccc(Oc3ccccc3)cc1)nn2[C@@H]1CCCN(CCNC(=O)N2CCN(c3ccc4c(c3)C(=O)N(C3CCC(=O)NC3=O)C4=O)CC2)C1 (stereo partly drawn) [Compound 526, N-(2-((R)-3-(4-amino-3-(4-phenoxyphenyl)-1H-pyrazolo[3,4-d]pyrimidin-1-yl)piperidin-1-yl)ethyl)-4-(2-(2,6-dioxopiperidin-3-yl)-1,3-dioxoisoindolin-5-yl)piperazine-1-carboxamide] |  | 1000 to 10000 nM | 1000 to 10000 nM |  |  |  |
| 10 to 50 nM | > 90% |  |  |  | Nc1ncnc2c1c(-c1ccc(Oc3ccccc3)cc1)nn2C1CCN(CCN2CCC(CSc3ccc4c(c3)C(=O)N(C3CCC(=O)NC3=O)C4=O)C2)CC1 (centres unmarked) [Compound 473, 5-(((1-(2-(4-(4-amino-3-(4-phenoxyphenyl)-1H-pyrazolo[3,4-d]pyrimidin-1-yl)piperidin-1-yl)ethyl)pyrrolidin-3-yl)methyl)thio)-2-(2,6-dioxopiperidin-3-yl)isoindoline-1,3-dione] |  | 1000 to 10000 nM | 1000 to 10000 nM |  |  |  |
| < 10 nM | > 90% |  |  |  | NC1=NC=NC2C1C(c1ccc(Oc3ccccc3)cc1)=NN2C1CCN(C(=O)N2CC(C3CN(c4ccc5c(c4)CN(C4CCC(=O)NC4=O)C5=O)C3)C2)CC1 (centres unmarked) [Compound 494, 3-(5-(1′-(4-(4-amino-3-(4-phenoxyphenyl)-3a,7a-dihydro-1H-pyrazolo[3,4-d]pyrimidin-1-yl)piperidine-1-carbonyl)-[3,3′-biazetidin]-1-yl)-1-oxoisoindolin-2-yl)piperidine-2,6-dione] |  | < 1000 nM | < 1000 nM |  |  |  |
| 10 to 50 nM | > 75% |  |  |  | Nc1ncnc2c1c(-c1ccc(Oc3ccccc3)cc1)nn2C1CCN(CC2CCN(CC3CCN(c4ccc5c(c4)oc(=O)n5C4CCC(=O)NC4=O)CC3)C2)CC1 (centres unmarked) [Compound 541, 3-(6-(4-((3-((4-(4-amino-3-(4-phenoxyphenyl)-1H-pyrazolo[3,4-d]pyrimidin-1-yl)piperidin-1-yl)methyl)pyrrolidin-1-yl)methyl)piperidin-1-yl)-2-oxobenzo[d]oxazol-3(2H)-yl)piperidine-2,6-dione] |  | 1000 to 10000 nM | 1000 to 10000 nM |  |  |  |
| < 10 nM | > 90% |  |  |  | Nc1ncnc2c1c(-c1ccc(Oc3ccccc3)cc1)nn2C1CCN(CC2CN(C[C@H]3CCN(c4ccc5c(c4)C(=O)N(C4CCC(=O)NC4=O)C5=O)C3)C2)CC1 (stereo partly drawn) [Compound 443a, 5-((R)-3-((3-((4-(4-amino-3-(4-phenoxyphenyl)-1H-pyrazolo[3,4-d]pyrimidin-1-yl)piperidin-1-yl)methyl)azetidin-1-yl)methyl)pyrrolidin-1-yl)-2-(2,6-dioxopiperidin-3-yl)isoindoline-1,3-dione] |  | < 1000 nM | < 1000 nM |  |  |  |
|  |  | > 90% | 10 to 50 nM |  | NC(=O)c1c(-c2ccc(Oc3ccccc3)cc2)nn2c1NCC[C@H]2C1CCN(C2CCN(C(=O)N3CCC(C4CCN(c5ccc6c(c5)C(=O)N(C5CCC(=O)NC5=O)C6=O)CC4)CC3)CC2)CC1 (stereo partly drawn) [Compound 383, (7S)-7-(1′-(1′-(2-(2,6-dioxopiperidin-3-yl)-1,3-dioxoisoindolin-5-yl)-[4,4′-bipiperidine]-1-carbonyl)-[1,4′-bipiperidin]-4-yl)-2-(4-phenoxyphenyl)-4,5,6,7-tetrahydropyrazolo[1,5-a]pyrimidine-3-carboxamide] |  | < 1000 nM | < 1000 nM |  |  |  |
| 10 to 50 nM | > 90% |  |  |  | Nc1ncnc2c1c(-c1ccc(Oc3ccccc3)cc1)nn2C1CCN(CCN2CCC(CN3CCN(c4ccc(NC5CCC(=O)NC5=O)cc4)CC3)C2)CC1 (centres unmarked) [Compound 563, 3-((4-(4-((1-(2-(4-(4-amino-3-(4-phenoxyphenyl)-1H-pyrazolo[3,4-d]pyrimidin-1-yl)piperidin-1-yl)ethyl)pyrrolidin-3-yl)methyl)piperazin-1-yl)phenyl)amino)piperidine-2,6-dione] |  | 1000 to 10000 nM | 1000 to 10000 nM |  |  |  |

Continued, compound first:

| Compound | DC50 (BTK; [1]) | Dmax (BTK; [2]) | Dmax (BTK) | DC50 (BTK; [3]) | Dmax (BTK degradation) (BTK; cell line not given) | IC50 (Mino cells; Homo sapiens) | IC50 (JeKo-1 cells; Homo sapiens) | IC50 (Mino cells; Homo sapiens, MINO) | degradation of BTK protein (BTK; Namalwa B lymphocyte cells, various concentrations, 24 hours, Western blot) | IC50 (Mino cells) | IC50 (JeKo-1 cells) |
| --- | --- | --- | --- | --- | --- | --- | --- | --- | --- | --- | --- |
| Nc1ncnc2c1c(-c1ccc(Oc3ccccc3)cc1)nn2C1CCN(CCN2CCC(CN3CCC(c4ccc(N5CCC(=O)NC5=O)cc4)CC3)CC2)CC1 [Compound 553, 1-(4-(1-((1-(2-(4-(4-amino-3-(4-phenoxyphenyl)-1H-pyrazolo[3,4-d]pyrimidin-1-yl)piperidin-1-yl)ethyl)piperidin-4-yl)methyl)piperidin-4-yl)phenyl)dihydropyrimidine-2,4(1H,3H)-dione] | < 10 nM | > 90% |  |  |  | < 1000 nM | < 1000 nM |  |  |  |  |
| NC(=O)c1c(-c2ccc(Oc3ccccc3)cc2)nn2c1NCCC2C1CCN(CC2CCN(C(=O)N3CCC(CC4CCN(c5ccc6c(c5)C(=O)N(C5CCC(=O)NC5=O)C6=O)CC4)CC3)CC2)CC1 (centres unmarked) [Compound 373, 7-(1-((1-(4-((1-(2-(2,6-dioxopiperidin-3-yl)-1,3-dioxoisoindolin-5-yl)piperidin-4-yl)methyl)piperidine-1-carbonyl)piperidin-4-yl)methyl)piperidin-4-yl)-2-(4-phenoxyphenyl)-4,5,6,7-tetrahydropyrazolo[1,5-a]pyrimidine-3-carboxamide] |  |  | > 75% | 10 to 50 nM |  |  | > 10000 nM | 1000 to 10000 nM |  |  |  |
| Nc1ncnc2c1c(-c1ccc(Oc3ccccc3)cc1)nn2C1CCN(C2CCN(C(=O)N3CCC(CCCN4CCC(c5ccc6c(c5)C(=O)N(C5CCC(=O)NC5=O)C6=O)CC4)CC3)CC2)CC1 (centres unmarked) [Compound 267, 5-(1-(3-(1-(4-(4-amino-3-(4-phenoxyphenyl)-1H-pyrazolo[3,4-d]pyrimidin-1-yl)-[1,4′-bipiperidine]-1′-carbonyl)piperidin-4-yl)propyl)piperidin-4-yl)-2-(2,6-dioxopiperidin-3-yl)isoindoline-1,3-dione] |  |  | > 90% | 10 to 50 nM |  |  | 1000 to 10000 nM | 1000 to 10000 nM |  |  |  |
| Nc1ncnc2c1c(-c1ccc(Oc3ccccc3)cc1)nn2C1CCN(CC2CCN(CC3CCN(c4ccc5c(c4)CN(C4CCC(=O)NC4=O)C5=O)CC3)CC2)CC1 (centres unmarked) [Compound 200, 3-(5-(4-((4-((4-(4-amino-3-(4-phenoxyphenyl)-1H-pyrazolo(3,4-d)pyrimidin-1-yl)piperidin-1-yl)methyl)piperidin-1-yl)methyl)piperidin-1-yl)-1-oxoisoindolin-2-yl)piperidine-2,6-dione] |  |  | < 50% | > 50 nM |  | 1000 to 10000 nM | 1000 to 10000 nM |  | dose-dependent degradation |  |  |
| NC(=O)c1c(-c2ccc(Oc3ccccc3)cc2)nn2c1NCCC2C1CCN(CC2CCN(CCN3CCN(c4ccc5c(c4)CN(C4CCC(=O)NC4=O)C5=O)CC3)CC2)CC1 (centres unmarked) [Compound 316, 7-(1-((1-(2-(4-(2-(2,6-dioxopiperidin-3-yl)-1-oxoisoindolin-5-yl)piperazin-1-yl)ethyl)piperidin-4-yl)methyl)piperidin-4-yl)-2-(4-phenoxyphenyl)-4,5,6,7-tetrahydropyrazolo[1,5-a]pyrimidine-3-carboxamide] |  |  | > 75% | 10 to 50 nM |  |  | 1000 to 10000 nM | 1000 to 10000 nM |  |  |  |
| NC(=O)c1c(-c2ccc(Oc3ccccc3)cc2)nn2c1NCCC2C1CCN(CC2CCN(C(=O)N3CCN(Cc4ccc5c(c4)CN(C4CCC(=O)NC4=O)C5=O)CC3)CC2)CC1 (centres unmarked) [Compound 360, 7-(1-((1-(4-((2-(2,6-dioxopiperidin-3-yl)-1-oxoisoindolin-5-yl)methyl)piperazine-1-carbonyl)piperidin-4-yl)methyl)piperidin-4-yl)-2-(4-phenoxyphenyl)-4,5,6,7-tetrahydropyrazolo[1,5-a]pyrimidine-3-carboxamide] |  |  | > 75% | > 50 nM |  |  | > 10000 nM | > 10000 nM |  |  |  |
| (7S)-7-(1-((1-(4-(2-(2,6- dioxopiperidin-3-yl)-1,3- dioxoisoindolin-5-yl)piperazine-1- carbonyl)piperidin-1- yl)methyl)piperidin-4-yl)-2-(4- phenoxyphenyl)-4,5,6,7- tetrahydropyrazolo[1,5-a]pyrimidine- 3-carboxamide [Compound 397] | > 50 nM |  |  |  | B (B >75%) |  |  |  |  | > 10000 nM | 1000 to 10000 nM |
| Nc1ncnc2c1c(-c1ccc(Oc3ccccc3)cc1)nn2C1CCN(C2CCN(C(=O)N3CCC(N4CCC(c5ccc6c(c5)C(=O)N(C5CCC(=O)NC5=O)C6=O)CC4)CC3)CC2)CC1 (centres unmarked) [Compound 235, 5-(1′-(4-(4-amino-3-(4-phenoxyphenyl)-1H-pyrazolo[3,4-d]pyrimidin-1-yl)-[1,4′-bipiperidine]-1′-carbonyl)-[1,4′-bipiperidin]-4-yl)-2-(2,6-dioxopiperidin-3-yl)isoindoline-1,3-dione] |  |  | > 90% | 10 to 50 nM |  |  | 1000 to 10000 nM | 1000 to 10000 nM |  |  |  |
| Nc1ncnc2c1c(-c1ccc(Oc3ccccc3)cc1)nn2C1CCN(CC2CCN(CCC3CCN(c4ccc5c(c4)CN(C4CCC(=O)NC4=O)C5=O)CC3)CC2)CC1 (centres unmarked) [Compound 202, 3-(5-(4-(2-(4-((4-(4-amino-3-(4-phenoxyphenyl)-1H-pyrazolo[3,4-d]pyrimidin-1-yl)piperidin-1-yl)methyl)piperidin-1-yl)ethyl)piperidin-1-yl)-1-oxoisoindolin-2-yl)piperidine-2,6-dione] |  |  | > 90% | 10 to 50 nM |  |  | < 1000 nM | 1000 to 10000 nM |  |  |  |
